Measured values reported in patent EP0624368A2, “Use of a composition for stimulating the synthesis of glutathione in the manufacture of a medicament for the treatment of acquired immune deficiency syndrome” (priority 1993, dated 1994).
One block for each compound: values may come before it.

Legend:
HIV-1 (strain IIIB) [1] = test: MTT assay of protection against acute HIV infection in MT-2 cells; format: cell-based; details: 100 IU/well HIV; for OD readings at 540 nm (MTT assay): MT-2, Day 6 cultures; for Calculated single treatment ED50: MT-2 cells, MTT assay
Description: (§1) Three cell culture systems were used in this study: H-9 cells; MT-2 cells; and normal human peripheral blood mononuclear cells (PBMC). H-9 cells were obtained from Advanced Biotechnology Inc. (ABI). MT-2 cells were obtained from Dr. J. Armstrong of the University of Pittsburgh. MT-2 cells are HTLV-I transformed human T lymphocytes and continuously produce HTLV-I virions. PBMC were obtained from healthy donors, purified by Ficol-Hypaque, and stimulated with PHA mitogen before being used in the efficacy studies. The initial stock of HIV-1 (strain IIIB) used in this study was obtained from ABI and the working stocks were produced.
(§2) Cells were collected, put into tissue culture plates and incubated with different concentrations of drugs in RPMI 1640 tissue culture medium for 20 minutes prior to HIV challenge. Infection was carried out by inoculating 20-100 HIV infectious units (IU)/well inoculum without removing the drugs. The untreated cells exposed to HIV challenge served as positive controls. The normal untreated uninfected cells served as negative controls.
(§3) Both the MTT assay and HIV p24 ELISA were used for evaluation of drug efficacies with MT-2 cells. The MTT assay is based upon the metabolic reduction of the MTT tetrazolium bromide dye in live cells. The OD readings (at 540 nm) obtained from the MTT assay are inversely correlated to the levels of cell mortality due to HIV infection or the cytotoxic effect of drugs. […] The HIV p24 antigen assay measures the level of HIV antigen present in the sample (i.e., culture supernatant).
(§4) When evaluating the efficacies of drugs in H-9 cells and PBMC systems, only HIV p24 assays were used. To calculate the ED₅₀ values, a second order linear regression was applied on the logarithm of the tested doses of different drugs against the OD readings obtained from either MTT assays or HIV p24 assays.

HIV-1 (strain IIIB) [2] = test: HIV p24 antigen assay in MT-2 cells (single and combination treatment); format: cell-based; details: 20 IU/well HIV; for OD readings at 450 nm (HIV p24 antigen): MT-2
Description: as §1, §2, §3, §4
(§5) Cells were collected, put into tissue culture plates and incubated with different combinations of drugs for 20 minutes prior to HIV infection in the combined treatment studies. Infection was carried out by inoculating 20-100 HIV IU/well inoculum without removing the drugs. The inocula were the same as the ones used in the single drug treatment to obtain the ED₅₀ values. Both MTT assays and HIV p24 antigen assays were used in evaluation of drug effects in MT-2 cells but only HIV p24 antigen assays were used for H-9 cells or PBMC.
(§6) Therefore, if the CI is less than 1, it indicates synergism among the tested drugs. Similarly, if the CI is equal to 1, the effects are additive, while a CI value greater than 1 is indicative of an antagonistic effect.

HIV-1 (strain IIIB) [3] = test: HIV p24 antigen assay in H-9 cells (single and combination treatment); format: cell-based; details: 80 IU/well HIV; for OD readings at 450 nm (HIV p24 antigen): H-9
Description: as §1, §2, §4, §5, §6

HIV-1 (strain IIIB) [4] = test: HIV p24 antigen assay in PBMC (single and combination treatment); format: cell-based; details: 50 IU/well HIV; for Calculated single treatment ED50: p24 assay
Description: as §1, §2, §4, §5, §6

PBMC = test: Toxicity study (median lethal dose) in PBMC; format: cell-based, human
Protocol: (§7) The median lethal doses (LD₅₀) of single treatment of Procysteine® were 5 mM with PBMC, 21 mM with H-9 cells, and 31 mM with MT-2 cells. […] Therefore, both 25 mM or 50 mM of Procysteine® could have caused significant cell mortality in the test cell systems. […] To avoid the misinterpretation of drug antiviral efficacy due to toxicity, an alternative design using lower concentrations of Procysteine® in the combination treatment was performed. […] The HIV p24 assays were performed for analysis.

H-9 cells = test: Toxicity study (median lethal dose) in H-9 cells; format: cell-based
Protocol: as §7

MT-2 cells = test: Toxicity study (median lethal dose) in MT-2 cells; format: cell-based, human
Protocol: as §7

H-9, MT-2, and PBMC = test: Toxicity study (median lethal dose), all three cell systems together; format: cell-based; details: range over the cell systems studied in this protocol
Protocol: as §7

mice [5] = test: Hematology of terminal blood in mice treated with AZT with or without Procysteine diet; format: in vivo; details: both sexes, AZT 50 or 500 mg/kg body weight/day by gavage 14 days, 1.0% Procysteine® diet in combination groups, p<0.01
Protocol: On study day 17, the animals were anesthetized with methoxyflurane (in a bell jar). When deeply anesthetized, blood was obtained from the abdominal aorta and transferred for hematological analysis into tubes containing an K₂EDTA suspension.
The following assays were conducted. Leukocyte count Erythrocyte count Total hemoglobin concentration Hematocrit Mean corpuscular volume (MCV) Mean corpuscular hemoglobin (MCH) Mean corpuscular hemoglobin concentration Platelet count Reticulocyte count Differential leukocyte count

mice [6] = test: Bone marrow aspirate count and stem cell colony assay in treated mice; format: in vivo
Protocol: Populations of bone marrow colony forming cells were evaluated. Bone marrow was collected and the stem cell assay conducted, as follows: one femur per mouse was cut at the distal and proximal ends. Using a syringe and 25 gauge needle, 5 mL of IMDM media was flushed through the femur into a collection tube (2.5 mL flushed into one end, then 2.5 ml into the other end). The tube was washed using Iscove's Modified Dulbecco's Media containing 20% fetal bovine serum and the cell concentration was adjusted to the desired count for the colony assay.
In triplicate, the marrow cells were put into a mixture of methylcellulose and plated into 35 mm diameter dishes. The dishes were incubated for approximately 2 weeks (37°C, 5% CO₂, 100% relative humidity) then manually scored under a microscope for myeloid, erythroid, and mixed colonies.

mice [7] = test: Bone marrow smear evaluation in treated mice
[8] = 10⁴ nucleated cells cultured 14 days

Compound: O=C1N[C@H](C(=O)O)CS1 [Procysteine®]
OD readings at 540 nm (MTT assay) (HIV-1 (strain IIIB) [1]; 0.023 mM): 0.392
OD readings at 540 nm (MTT assay) (HIV-1 (strain IIIB) [1]; 0.23 mM): 0.265
OD readings at 540 nm (MTT assay) (HIV-1 (strain IIIB) [1]; 0.93 mM): 0.283
OD readings at 540 nm (MTT assay) (HIV-1 (strain IIIB) [1]; 3.75 mM): 0.270
OD readings at 540 nm (MTT assay) (HIV-1 (strain IIIB) [1]; 15 mM): 0.308
OD readings at 540 nm (MTT assay) (HIV-1 (strain IIIB) [1]; 60 mM): 0.350
Calculated single treatment ED50 (HIV-1 (strain IIIB) [1]): 2.3e+13 mM
OD readings at 450 nm (HIV p24 antigen) (HIV-1 (strain IIIB) [2]; 0.023 mM): 3.269
OD readings at 450 nm (HIV p24 antigen) (HIV-1 (strain IIIB) [2]; 0.23 mM): 3.712
OD readings at 450 nm (HIV p24 antigen) (HIV-1 (strain IIIB) [2]; 0.93 mM): 3.762
OD readings at 450 nm (HIV p24 antigen) (HIV-1 (strain IIIB) [2]; 3.75 mM): 3.649
OD readings at 450 nm (HIV p24 antigen) (HIV-1 (strain IIIB) [2]; 15 mM): 2.825
OD readings at 450 nm (HIV p24 antigen) (HIV-1 (strain IIIB) [2]; 60 mM): 1.675
Calculated single treatment ED50 (HIV-1 (strain IIIB) [2]; MT-2 cells, p24 assay): 1613 mM
OD readings at 450 nm (HIV p24 antigen) (HIV-1 (strain IIIB) [3]; 0.023 mM): 4.133
OD readings at 450 nm (HIV p24 antigen) (HIV-1 (strain IIIB) [3]; 0.23 mM): 4.133
OD readings at 450 nm (HIV p24 antigen) (HIV-1 (strain IIIB) [3]; 0.93 mM): 4.133
OD readings at 450 nm (HIV p24 antigen) (HIV-1 (strain IIIB) [3]; 3.75 mM): 4.133
OD readings at 450 nm (HIV p24 antigen) (HIV-1 (strain IIIB) [3]; 15 mM): 4.099
OD readings at 450 nm (HIV p24 antigen) (HIV-1 (strain IIIB) [3]; 60 mM): 0.767
Calculated single treatment ED50 (HIV-1 (strain IIIB) [3]; H-9 cells, p24 assay): 653 mM
OD readings at 450 nm (HIV p24 antigen) (HIV-1 (strain IIIB) [4]; 0.023 mM): 3.703
OD readings at 450 nm (HIV p24 antigen) (HIV-1 (strain IIIB) [4]; 0.23 mM): 3.057
OD readings at 450 nm (HIV p24 antigen) (HIV-1 (strain IIIB) [4]; 0.93 mM): 2.951
OD readings at 450 nm (HIV p24 antigen) (HIV-1 (strain IIIB) [4]; 3.75 mM): 3.640
OD readings at 450 nm (HIV p24 antigen) (HIV-1 (strain IIIB) [4]; 15 mM): 3.284
OD readings at 450 nm (HIV p24 antigen) (HIV-1 (strain IIIB) [4]; 60 mM): 1.141
Calculated single treatment ED50 (HIV-1 (strain IIIB) [4]): 378 mM
median lethal doses (LD50) (PBMC; single treatment): 5 mM
LD50 value (PBMC; with 1 µM of AZT): 8.3 mM
median lethal doses (LD50) (H-9 cells; single treatment): 21 mM
LD50 value (H-9 cells; with 1 µM of AZT): 30 mM
LD50 value (MT-2 cells; as quoted in the discussion of ddI combination treatment): 31 to 32 mM
median lethal doses (LD50) (MT-2 cells; single treatment): 31 mM
LD50 value (MT-2 cells; with 1 µM of AZT): 36 mM
median lethal doses (LD50) (H-9, MT-2, and PBMC): 5 to 30 mM

hematological effects in terminal blood (hemoglobin, hematocrit, erythrocyte counts decreased; MCV, MCH increased) (mice [5]): Anemia
burst forming units-erythroid for marrow cultures (mice [6]; [8]): No group differences
total colonies and colony forming units-granulocyte/macrophage (mice [6]; [8]): significant induction
nucleated cells in bone marrow aspirates (mice [6]; AZT 50 or 500 mg/kg body weight/day, compared to controls): significant reduction
total count of erythroid series cells in bone marrow smears (mice [7]; AZT 50 or 500 mg/kg body weight/day, 1.0% Procysteine® diet in combination groups): reduced total count
rubriblasts in bone marrow smears (mice [7]; AZT-treated): mild reduction
Compound: Cc1cn([C@H]2C[C@H](N=[N+]=[N-])[C@@H](CO)O2)c(=O)[nH]c1=O [AZT]
OD readings at 540 nm (MTT assay) (HIV-1 (strain IIIB) [1]; 0.0025 μM): 0.474
OD readings at 540 nm (MTT assay) (HIV-1 (strain IIIB) [1]; 0.01 μM): 0.641
OD readings at 540 nm (MTT assay) (HIV-1 (strain IIIB) [1]; 0.04 μM): 0.678
OD readings at 540 nm (MTT assay) (HIV-1 (strain IIIB) [1]; 0.16 μM): 0.688
OD readings at 540 nm (MTT assay) (HIV-1 (strain IIIB) [1]; 0.64 μM): 0.946
Calculated single treatment ED50 (HIV-1 (strain IIIB) [1]): 5.5e-05 mM
OD readings at 450 nm (HIV p24 antigen) (HIV-1 (strain IIIB) [3]; 0.0025 μM): 4.133
OD readings at 450 nm (HIV p24 antigen) (HIV-1 (strain IIIB) [3]; 0.01 μM): 4.133
OD readings at 450 nm (HIV p24 antigen) (HIV-1 (strain IIIB) [3]; 0.04 μM): 4.133
OD readings at 450 nm (HIV p24 antigen) (HIV-1 (strain IIIB) [3]; 0.16 μM): 3.815
OD readings at 450 nm (HIV p24 antigen) (HIV-1 (strain IIIB) [3]; 0.64 μM): 0.358
OD readings at 450 nm (HIV p24 antigen) (HIV-1 (strain IIIB) [4]; 0.0025 μM): 3.405
OD readings at 450 nm (HIV p24 antigen) (HIV-1 (strain IIIB) [4]; 0.01 μM): 2.978
OD readings at 450 nm (HIV p24 antigen) (HIV-1 (strain IIIB) [4]; 0.04 μM): 0.155
OD readings at 450 nm (HIV p24 antigen) (HIV-1 (strain IIIB) [4]; 0.16 μM): 0.163
OD readings at 450 nm (HIV p24 antigen) (HIV-1 (strain IIIB) [4]; 0.64 μM): 0.204
Calculated single treatment ED50 (HIV-1 (strain IIIB) [4]): 2.1e-05 mM
metarubricytes (nonproliferating) in bone marrow smears (mice [7]; AZT-treated): marked reduction
nonproliferating compartment of the myeloid series (mice [7]; bone marrow smears): reduction
proliferating compartment of the myeloid series (mice [7]; bone marrow smears): significantly increased
